# According to patent US9566222B2, “Peptidyl arginine deiminase 1 and/or 3 activator compounds in the epidermis and uses thereof” (PIERRE FABRE DERMO-COSMETIQUE, priority 2011, dated 2017):
# How the values were obtained:
# [1] = tested on: Reconstructed human epidermises; assay: Deiminated proteins in horny layer of reconstructed epidermises after topical gel, immunohistology (AMC); assay type: cell-based; details: gel containing 3% acefylline as sodium salt, 24 hours
# Experimental: Reconstructed human epidermises 0.33 cm^2 in size were grown at the air-liquid interface for 14 days. 5 mg/cm^2 of pre-formulas containing the various active agents was then applied homogeneously to their surface using a brush. Triplicates were carried out for a treatment period of 24 hours at 37° C. The epidermises were then divided: half were frozen in Tissue Tek and then 6 μm cryo-sections were made for immunohistology; the other half were dry frozen at −80° C. for the preparation of total protein extracts before analysis by Western blot.
# The deiminated proteins were immunodetected as described above after incubation in modification buffer. Negative controls were prepared systematically by omitting the modification. After washing with water, the sections were incubated with AMC anti-citrulline antibody diluted to 1/1000. Finally, counter-staining was carried out with hematoxylin.
# PAD1 = biological target: T1, PAD1 (Homo sapiens, UniProt Q9ULC6); assay: Deimination of recombinant human filaggrin (Fil-His) by PAD1, immunodetection with AMC anti-citrulline antibody; assay type: biochemical; details: 5 mM streptomycin vs solvent alone (1% dimethylsulfoxide); 3 or 5 min incubation
# T1 construct: purchased Professor Hidenari Takahara (University of Ibaraki, Japan)
# T1 sequence (Q9ULC6 1-663): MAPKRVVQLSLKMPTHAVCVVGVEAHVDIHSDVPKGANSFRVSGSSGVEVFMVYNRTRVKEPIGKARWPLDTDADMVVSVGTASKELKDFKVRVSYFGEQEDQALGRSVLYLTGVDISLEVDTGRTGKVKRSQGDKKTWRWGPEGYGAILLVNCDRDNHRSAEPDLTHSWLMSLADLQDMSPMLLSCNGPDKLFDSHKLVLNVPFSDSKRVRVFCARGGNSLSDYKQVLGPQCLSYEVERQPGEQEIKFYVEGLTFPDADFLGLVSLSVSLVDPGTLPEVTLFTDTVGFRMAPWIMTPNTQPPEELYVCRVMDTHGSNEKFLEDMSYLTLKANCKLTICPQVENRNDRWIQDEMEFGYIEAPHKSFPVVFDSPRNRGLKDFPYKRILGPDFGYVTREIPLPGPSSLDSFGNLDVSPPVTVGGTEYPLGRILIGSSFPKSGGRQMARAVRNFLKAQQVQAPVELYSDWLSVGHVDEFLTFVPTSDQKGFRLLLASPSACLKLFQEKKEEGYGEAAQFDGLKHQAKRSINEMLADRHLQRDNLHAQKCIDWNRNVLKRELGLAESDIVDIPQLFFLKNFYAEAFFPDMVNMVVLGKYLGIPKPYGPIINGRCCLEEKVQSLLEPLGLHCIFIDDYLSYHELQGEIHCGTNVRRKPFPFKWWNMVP
# Experimental: 25 ng of Fil-His was incubated at 50° C. in the presence of 40 mU of PAD1 or PAD3 in deimination buffer (10 mM CaCl2, 5 mM dithiothreitol, 50 mM Tris-HCl pH 7.4). After a variable incubation period according to the PAD isoform (generally 2 to 5 minutes for PAD1 and 60 to 180 minutes for PAD3), the reaction was quenched by adding sample buffer. The proteins were then separated by SDS-PAGE and immunodetected by AHF11 anti-filaggrin monoclonal antibody and AMC modified anti-citrulline antibody (Millipore, Mollsheim, France) diluted to 1/5000.
# The deimination of Fil-His (25 ng) was carried out as described above (paragraph A.3), in deimination buffer (10 mM CaCl2, 5 mM dithiothreitol, 50 mM Tris-HCl pH 7.4) at 50° C. in the presence of 40 mU of PAD1 or PAD3, for 0, 3, 5, 60 and 180 minutes. […] In certain cases, the active agents were diluted in water. After incubation, the proteins of the reaction mixture were immunodetected by AMC antibody. The immunodetection intensity was quantified by densitometry with the NIH ImageJ software.
Compound,Immunodetection intensity (AMC staining) of the horny layer vs control gel [1],Effect on PAD1 (AMC immunodetection intensity of deiminated Fil-His) (PAD1)
Cn1c(=O)c2c(ncn2CC(=O)[O-])n(C)c1=O.[Na+] [acefylline in the form of sodium salt],stronger,
[H]/N=C(/N)N[C@H]1[C@H](O)[C@@H](O)[C@H](O[C@@H]2O[C@@H](C)[C@](O)(C=O)[C@H]2O[C@@H]2O[C@@H](CO)[C@H](O)[C@@H](O)[C@@H]2NC)[C@@H](N/C(N)=N\[H])[C@@H]1O [streptomycin],,inhibited
